Assay results taken from publication PMC10487843, “Evaluation of Anticancer and Anti-Inflammatory Activities of Some Synthetic Rearranged Abietanes” (International Journal of Molecular Sciences, 2023).
≈ marks a conversion by molar mass, not a printed value.

Assays:
[1] = tested on: murine melanoma (B16–F10); assay: MTT cell viability assay, B16-F10; assay type: cell-based; conditions: Mus musculus, 72 h; for IC80: 80% growth inhibition
Excerpt: (§1) In this study, we employed the MTT (3-(4,5-dimethyl thiazol-2-yl)-2,5-diphenyltetrazolium bromide) colorimetric assay to evaluate the cytotoxic activity of selected abietanes (compounds 5, 7, 13, 17, and 19) against three tumor cell lines: human colon adenocarcinoma (HT29), human hepatocarcinoma (HepG2), and murine melanoma (B16–F10). The MTT assay relied on the conversion of MTT to formazan by viable cells, with the formazan concentration proportional to the number of viable cells. The concentrations required for 50 and 80% growth inhibition (IC50 and IC80) were determined for each compound.
The human colorectal adenocarcinoma cell line HT29 (ECACC no. 9172201; ATCC no. HTB-38), the human hepatocarcinoma cell line HepG2 (ECACC no. 85011430), the mouse melanoma cells B16–F10 (ATCC no. CRL-6475), and the murine monocyte/macrophage like RAW 264.7 cell line (ATCC no, TIB-71) were obtained from the cell bank of the University of Granada, Spain. The tumor cell lines were cultured in DMEM (Dulbecco’s modified Eagle’s medium) supplemented with 2 mM glutamine, 10% heat-inactivated FCS (fetal calf serum), and 50 μg/mL of gentamicin (for all cancer cell lines). The RAW 264.7 cell line was cultured in RPMI1640 medium, supplemented with 2 mM glutamine, 10% heat-inactivated FCS, and 50 μg/mL of gentamicin. All cell lines were incubated at 37 °C, in an atmosphere of 5% CO2 and 95% humidity. The culture media were changed every 48 h, and the confluent cultures were separated with a trypsin solution (0.25% EDTA). In all experiments, monolayer cells were grown to 80–90% confluence in sterile cell culture flasks.
The effects of the compounds on the cell viability were established using the MTT method (Sigma, St. Louis, MO, USA). The cytotoxicity of the compounds was assessed by measuring the absorbance of MTT dye staining of metabolically competent cells. The cells were cultivated in 96-well plates at 6.0 × 10^3 cells/mL for the HT29 and RAW 264.7 cell lines, at 5.0 × 10^3 cells/mL for B16–F10 cells, and 15.0 × 10^3 cells/mL for the HepG2 cell line, with a final volume of 200 μL per well being incubated with the different products (0–100 μg/mL). After 72 h, 100 μL of MTT solution (0.5 mg/mL) in 50% of PBS and 50% of the medium was added to each well. Following incubation for 1.5 h, formazan was resuspended in 100 μL of DMSO, and each concentration was tested in triplicate. The cell viability relative to the untreated control cells was determined by measuring the absorbance at 570 nm using an ELISA plate reader (Tecan Sunrise MR20–301, TECAN, Grödig, Austria).

[2] = RAW 264.7 cell viability (MTT); assay type: cell-based, murine; conditions: mouse, RAW 264.7 monocyte/macrophage cells; RAW 264.7, MTT, 0–100 μg/mL; read-out: IC50 (cytotoxicity)
Description: To evaluate the cytotoxic effects of the synthesized abietanes (5, 7, 13, 17, and 19) on RAW 264.7 monocyte/macrophage murine cells and to establish sub-cytotoxic concentrations for anti-inflammatory testing, we conducted cell viability assays using the MTT method. Each compound was tested at increasing concentration levels (0–100 μg/mL), and the IC50 values were determined by interpolation in the sigmoidal cytotoxicity curves (Figure 8). […] Additionally, sub-cytotoxic concentrations corresponding to ¾ IC50, ½ IC50, and ¼ IC50 were determined and selected for subsequent anti-inflammatory assays, ensuring that the observed effects were specifically attributed to the anti-inflammatory properties of the compounds rather than cytotoxicity. The human colorectal adenocarcinoma cell line HT29 (ECACC no. 9172201; ATCC no. HTB-38), the human hepatocarcinoma cell line HepG2 (ECACC no. 85011430), the mouse melanoma cells B16–F10 (ATCC no. CRL-6475), and the murine monocyte/macrophage like RAW 264.7 cell line (ATCC no, TIB-71) were obtained from the cell bank of the University of Granada, Spain. The tumor cell lines were cultured in DMEM (Dulbecco’s modified Eagle’s medium) supplemented with 2 mM glutamine, 10% heat-inactivated FCS (fetal calf serum), and 50 μg/mL of gentamicin (for all cancer cell lines). The RAW 264.7 cell line was cultured in RPMI1640 medium, supplemented with 2 mM glutamine, 10% heat-inactivated FCS, and 50 μg/mL of gentamicin. All cell lines were incubated at 37 °C, in an atmosphere of 5% CO2 and 95% humidity. The culture media were changed every 48 h, and the confluent cultures were separated with a trypsin solution (0.25% EDTA). In all experiments, monolayer cells were grown to 80–90% confluence in sterile cell culture flasks. The effects of the compounds on the cell viability were established using the MTT method (Sigma, St. Louis, MO, USA). The cytotoxicity of the compounds was assessed by measuring the absorbance of MTT dye staining of metabolically competent cells. The cells were cultivated in 96-well plates at 6.0 × 10^3 cells/mL for the HT29 and RAW 264.7 cell lines, at 5.0 × 10^3 cells/mL for B16–F10 cells, and 15.0 × 10^3 cells/mL for the HepG2 cell line, with a final volume of 200 μL per well being incubated with the different products (0–100 μg/mL). After 72 h, 100 μL of MTT solution (0.5 mg/mL) in 50% of PBS and 50% of the medium was added to each well. Following incubation for 1.5 h, formazan was resuspended in 100 μL of DMSO, and each concentration was tested in triplicate. The cell viability relative to the untreated control cells was determined by measuring the absorbance at 570 nm using an ELISA plate reader (Tecan Sunrise MR20–301, TECAN, Grödig, Austria).

HT29 cells = assay: Hoechst-stained fluorescence microscopy (nuclear morphology); assay type: cell-based, human; conditions: HT29, 72 h
Excerpt: To assess the apoptosis induction capacity of compounds 5 and 13 on HT29 cells, we performed Hoechst […] nuclear staining, a well-established method for visualizing the morphological changes associated with apoptosis. Two principal morphological characteristics can be observed in the apoptosis process, chromatin condensation and nuclei fragmentation. Hoechst is a dye capable of penetrating cells and binding to double-stranded DNA, emitting blue light that can be visualized by using fluorescence microscopy.
The morphological changes were analyzed using Hoechst-stained fluorescence microscopy. For the analysis, 15 × 10^4 HT29 cells were plated on a coverslip within a 24-well plate. […] The cells were washed twice with PBS, treated with cold MeOH for 3 min, washed again with PBS, and then incubated in 500 μL of Hoechst solution (50 ng/mL) in PBS for 15 min in the dark. Finally, the samples were visualized through fluorescent microscopy (DMRB, Leica Microsystems, Wetzlar, Germany) under a DAPI filter.

[3] = tested on: HT29, HepG2 and B16–F10 cell lines; assay: MTT cell viability assay, span over all three tumor cell lines; assay type: cell-based; conditions: 72 h
Excerpt: as §1
The human colorectal adenocarcinoma cell line HT29 (ECACC no. 9172201; ATCC no. HTB-38), the human hepatocarcinoma cell line HepG2 (ECACC no. 85011430), the mouse melanoma cells B16–F10 (ATCC no. CRL-6475), and the murine monocyte/macrophage like RAW 264.7 cell line (ATCC no, TIB-71) were obtained from the cell bank of the University of Granada, Spain. […]
The effects of the compounds on the cell viability were established using the MTT method (Sigma, St. Louis, MO, USA). The cytotoxicity of the compounds was assessed by measuring the absorbance of MTT dye staining of metabolically competent cells. […] The cell viability relative to the untreated control cells was determined by measuring the absorbance at 570 nm using an ELISA plate reader (Tecan Sunrise MR20–301, TECAN, Grödig, Austria).

`CC(C)C1=CC2=C(C(=O)C1=O)C1=CC(=O)CC(C)(C)[C@@]1(C)C=C2` [Compound 5, Pygmaeocin B] showed an IC50 [1] of 13.6 ± 0.14 µg/mL (≈ 43.9 µM), an IC80 [1] of 14.04 ± 0.08 µg/mL (≈ 45.2 µM) and an IC50 at 72 h [2] of 0.14 ± 0.09 µg/mL (≈ 0.451 µM). For the same molecule, the “nuclear morphology, Hoechst staining” value (HT29 cells; IC50 concentration) was “loss of normal nuclear architecture and chromatin condensation” and the “nuclear morphology, Hoechst staining” value (HT29 cells; IC80 concentration) was “formation of pyknotic or contracted nuclei followed by fragmentation into apoptotic bodies”.
For `CC(C)C1=CC2=C(C(=O)C1=O)[C@@]1(C)CCCC(C)(C)[C@@H]1CC2` [Compound 13], the IC50 [1] was 4.14 ± 0.25 µg/mL (≈ 13.8 µM), the IC80 [1] was 5.41 ± 0.25 µg/mL (≈ 18 µM) and the IC50 ([3]; read-out: IC50 values, range in all three cell lines) was 2.67 to 5.58 µg/mL (≈ 8.89 to 18.6 µM). The IC80 ([3]; read-out: IC80 values, range in all three cell lines) was 5.19 to 7.67 µg/mL (≈ 17.3 to 25.5 µM), the IC50 at 72 h [2] was 8.18 ± 1.86 µg/mL (≈ 27.2 µM) and the “nuclear morphology, Hoechst staining” value (HT29 cells; IC50 concentration) was “loss of normal nuclear architecture and chromatin condensation”. For the same molecule, the “nuclear morphology, Hoechst staining” value (HT29 cells; IC80 concentration) was “formation of pyknotic or contracted nuclei followed by fragmentation into apoptotic bodies”.
